# Source: patent publication US4950686A, “Anti-mycoplasma agent” (Shionogi & Co., Ltd., priority 1986, dated 1990)
# Structures can show the parent of a compound that is named as a salt. Where two headings read alike, the source gives them in different places.
# Experiments:
# [1] = system: Mycoplasma gallisepticum MR-1 (wild strain, tylosin-resistant); assay: Anti-mycoplasma activity in vitro (MIC, broth dilution), strain MR-1; type: cell-based; conditions: Mg MR-1, 37° C., 7 days
# Procedure: (§1) (1) Anti-mycoplasma activity test in vitro
# (§2) MIC values of each of Tropolones were measured on the following strains according to the following method.
# (§3) (a) Mycoplasma gallisepticum
# MR-1 (wild strain, tylosin-resistant)
# (§4) Medium: Chick PPLO broth supplemented with 20% equine serum (Eiken Kagaku Co., Ltd.)
# (§5) Method: Broth dilution method
# (§6) Inoculum: Culture incubated at 37° C. for 24-48 hr which is diluted with broth to 10^6 CCU/ml immediately before the use.
# (§7) To 1.6 ml of the broth is added 0.2 ml of an agent which has been subjected to 2-fold dilution and then added 0.2 ml of inoculum, which is incubated at 37° C. for 7 days.
# [2] = system: Mycoplasma gallisepticum S6 (standard strain); assay: Mycoplasma gallisepticum air-sac infection method in chicken, strain S6; type: in vivo, Mycoplasma gallisepticum; SPF chicken (white leghorn)
# Procedure: (§8) (2) Test of Effectiveness Mycoplasma gallisepticum air-sac infection method
# (§9) Inoculation: To the right air-sac of 9 days old SPF chicken (a white leghorn) which has abstained from water and feed one day before is inoculated 0.20-0.25 ml/chicken of fresh mycoplasma culture incubated for 24-48 hr and diluted with broth (usually 100 times). The concentration in Table 2 is shown in a unit of mg/ml.
# (§10) Medium: Chick PPLO broth supplemented with 15% equine serum (Eiken Kagaku Co., Ltd.)
# (§11) Administration: A compound of this invention dissolved or suspended in the following solution is orally and forcibly administered once by a cannula immediately after the infection.
# (§12) Anatomization and Isolation of Microorganism: The chickens are anatomized 5 days after the infection, and the right and left air sacs are investigated whether they are attacked with a disease or not. The change caused by the disease is represented in four degrees; -: no change, +: slight, ++: medium and +++: serious. Microorganism is isolated from the right and left air-sacs and the trachea by using a sterilized applicator.
# (§13) Judgement: Judgement is done through an index of an air-sac disease and an index of a microorganism-isolation.
# (§14) Index of an air-sac-disease: First, indexes in the right and left air-sacs are separately calculated according to the following formula;
# (§15) {degree of disease (0-3)×chickens}/anatomized chickens
# (§16) and the index is calculated by the following formula;
# (§17) (index of right air-sac)×1+(index of left air-sac)×2
# (§18) Index of a microorganism isolation:
# (§19) P: chickens from the right air-sac of which microorganism is isolated,
# (§20) Q: chickens from the trachea of which microorganism is isolated,
# (§21) R: chickens from the left air-sac of which microorganism is isolated, and
# (§22) S: chickens investigated.
# [3] = system: Mycoplasma gallisepticum T-7-T (wild strain, tylosin-resistant); assay: Anti-mycoplasma activity in vitro (MIC, broth dilution), strain T-7-T; type: cell-based; conditions: Mg T-7-T, 37° C., 7 days
# Procedure: as §1, §2, §3
# (§23) T-7-T (wild strain, tylosin-resistant)
# as §4, §5, §6, §7
# [4] = system: Mycoplasma hyopneumoniae ST-11 (standard strain); assay: Anti-mycoplasma activity in vitro (MIC, broth dilution), strain ST-11; type: cell-based; conditions: Mh ST-11
# Procedure: as §1, §2
# (b) Mycoplasma hyopneumoniae
# Strain: ST-11 (standard strain)
# Medium: 850 ml of Hanks' solution supplemented with 0.5% lactoalbumin, 50 ml of 25% yeast, 100 ml of equine serum and 4-6 ml of 0.5% phenol red (pH 7.4-7.6)
# as §5
# Inoculum: Culture which is incubated for 3-4 days and diluted 10 times with the broth if color of the broth becomes yellow then. If it needs over 4 days until color of the broth becomes yellow, it is further subcultured. This is diluted 10 times with the broth to give inoculum.
# Assay is done in the same manner as in the above (a).
# [5] = system: Mycoplasma gallisepticum S6 (standard strain); assay: Anti-mycoplasma activity in vitro (MIC, broth dilution), strain S6; type: cell-based; conditions: Mg S6, 37° C., 7 days
# Procedure: as §1, §2, §3, §4, §5, §6, §7
# [6] = system: Mycoplasma gallisepticum T-7-T (wild strain, tylosin-resistant); assay: Mycoplasma gallisepticum air-sac infection method in chicken, strain T-7-T;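 for Index of Isolation: index = (P×1 + Q×2 + R×3)/S with range 0 to 6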; type: in vivo, Mycoplasma gallisepticum; SPF chicken (white leghorn); conditions: 100 mg/kg × once oral, 10 mg/ml sol. b; for Change of air-sac, left: + (chickens) / Change of air-sac, left: ++ (chickens) / Change of air-sac, left: +++ (chickens) / Change of air-sac, left: - (chickens) / Change of air-sac, right: + (chickens) / Change of air-sac, right: ++ (chickens) / Change of air-sac, right: +++ (chickens) / Change of air-sac, right: - (chickens) / Isolation, L (left air-sac) / Isolation, R (right air-sac) / Isolation, T (trachea) / Mycoplasma Isolated Chickens: inoculum 10^2; for Index of Isolation: inoculum 10^2, range 0-6.0; for Index of Disease: inoculum 10^2, range 0-9.0
# Procedure: as §8, §23, §9, §10, §11, §12, §13, §14, §15, §16, §17, §18, §19, §20, §21, §22
# [7] = 200 mg/kg × once oral, 20 mg/ml sol. b, inoculum 1.18 × 10^6
# [8] = Mycoplasmoides gallisepticum, 168 h, read-out: MIC
# [9] = 100 mg/kg × once oral, 10 mg/ml sol. b, inoculum 1.2 × 10^6
# [10] = 100 mg/kg × once oral, 10 mg/ml sol. b, inoculum 1.2 × 10^6, range 0-6.0
# [11] = 100 mg/kg × once oral, 10 mg/ml sol. b, inoculum 1.2 × 10^6, range 0-9.0
# [12] = Mesomycoplasma hyopneumoniae, read-out: MIC
# [13] = 100 mg/kg × once oral, 10 mg/ml sol. b, inoculum 7.7 × 10^5
# [14] = 100 mg/kg × once oral, 10 mg/ml sol. b, inoculum 7.7 × 10^5, range 0-6.0
# [15] = 100 mg/kg × once oral, 10 mg/ml sol. b, inoculum 7.7 × 10^5, range 0-9.0
compound,measurement,setting,value
"O=c1cccccc1O [Compound 12, Tropolone L-arginine salt]",MIC,[1],3.13 µg/mL
same,"Change of air-sac, left: + (chickens)",[2]; [7],0
same,"Change of air-sac, left: ++ (chickens)",[2]; [7],0
same,"Change of air-sac, left: +++ (chickens)",[2]; [7],0
same,"Change of air-sac, left: - (chickens)",[2]; [7],5
same,"Change of air-sac, right: + (chickens)",[2]; [7],1
same,"Change of air-sac, right: ++ (chickens)",[2]; [7],0
same,"Change of air-sac, right: +++ (chickens)",[2]; [7],0
same,"Change of air-sac, right: - (chickens)",[2]; [7],4
same,"Isolation, L (left air-sac)",[2]; [7],0
same,"Isolation, R (right air-sac)",[2]; [7],2
same,"Isolation, T (trachea)",[2]; [7],1
same,Mycoplasma Isolated Chickens,[2]; [7],2
same,Index of Isolation,"[2]; 200 mg/kg × once oral, 20 mg/ml sol. b, inoculum 1.18 × 10^6, range 0-6.0",0.8
same,Index of Disease,"[2]; 200 mg/kg × once oral, 20 mg/ml sol. b, inoculum 1.18 × 10^6, range 0-9.0",0.2
same,MIC,[3],3.13 µg/mL
same,MIC,[4],1.56 µg/mL
same,MIC,[5],3.13 µg/mL
"CC(C)(C)C(=O)OCOc1cccccc1=O [Compound 19, O-(pivaloyloxymethyl)tropolone]",MIC,[1]; [8],1.56 µg/mL
same,"Change of air-sac, left: + (chickens)",[6],0
same,"Change of air-sac, left: ++ (chickens)",[6],0
same,"Change of air-sac, left: +++ (chickens)",[6],0
same,"Change of air-sac, left: - (chickens)",[6],8
same,"Change of air-sac, right: + (chickens)",[6],0
same,"Change of air-sac, right: ++ (chickens)",[6],0
same,"Change of air-sac, right: +++ (chickens)",[6],0
same,"Change of air-sac, right: - (chickens)",[6],8
same,"Isolation, L (left air-sac)",[6],2
same,"Isolation, R (right air-sac)",[6],1
same,"Isolation, T (trachea)",[6],5
same,Mycoplasma Isolated Chickens,[6],5
same,Index of Isolation,[6],2.00
same,Index of Disease,[6],0
same,"Change of air-sac, left: + (chickens)",[2]; [9],0
same,"Change of air-sac, left: ++ (chickens)",[2]; [9],0
same,"Change of air-sac, left: +++ (chickens)",[2]; [9],0
same,"Change of air-sac, left: - (chickens)",[2]; [9],8
same,"Change of air-sac, right: + (chickens)",[2]; [9],0
same,"Change of air-sac, right: ++ (chickens)",[2]; [9],0
same,"Change of air-sac, right: +++ (chickens)",[2]; [9],0
same,"Change of air-sac, right: - (chickens)",[2]; [9],8
same,"Isolation, L (left air-sac)",[2]; [9],1
same,"Isolation, R (right air-sac)",[2]; [9],1
same,"Isolation, T (trachea)",[2]; [9],2
same,Mycoplasma Isolated Chickens,[2]; [9],2
same,Index of Isolation,[2]; [10],1.01
same,Index of Disease,[2]; [11],0
same,MIC,[3]; [8],0.78 µg/mL
same,MIC,[4]; [12],0.1 µg/mL
same,MIC,[5]; [8],0.39 µg/mL
"O=C1OC(Oc2cccccc2=O)c2ccccc21 (stereo not shown) [Compound 23, O-(1,3-Dihydro-3-oxo-1-isobenzofuranyl)tropolone]",MIC,[1]; [8],0.78 µg/mL
same,"Change of air-sac, left: + (chickens)",[6],0
same,"Change of air-sac, left: ++ (chickens)",[6],0
same,"Change of air-sac, left: +++ (chickens)",[6],0
same,"Change of air-sac, left: - (chickens)",[6],8
same,"Change of air-sac, right: + (chickens)",[6],0
same,"Change of air-sac, right: ++ (chickens)",[6],0
same,"Change of air-sac, right: +++ (chickens)",[6],0
same,"Change of air-sac, right: - (chickens)",[6],8
same,"Isolation, L (left air-sac)",[6],6
same,"Isolation, R (right air-sac)",[6],5
same,"Isolation, T (trachea)",[6],6
same,Mycoplasma Isolated Chickens,[6],6
same,Index of Isolation,[6],4.20
same,Index of Disease,[6],0
same,"Change of air-sac, left: + (chickens)",[2]; [9],0
same,"Change of air-sac, left: ++ (chickens)",[2]; [9],0
same,"Change of air-sac, left: +++ (chickens)",[2]; [9],0
same,"Change of air-sac, left: - (chickens)",[2]; [9],8
same,"Change of air-sac, right: + (chickens)",[2]; [9],0
same,"Change of air-sac, right: ++ (chickens)",[2]; [9],0
same,"Change of air-sac, right: +++ (chickens)",[2]; [9],0
same,"Change of air-sac, right: - (chickens)",[2]; [9],8
same,"Isolation, L (left air-sac)",[2]; [9],1
same,"Isolation, R (right air-sac)",[2]; [9],1
same,"Isolation, T (trachea)",[2]; [9],4
same,Mycoplasma Isolated Chickens,[2]; [9],4
same,Index of Isolation,[2]; [10],1.90
same,Index of Disease,[2]; [11],0
same,MIC,[3]; [8],0.78 µg/mL
same,MIC,[4]; [12],0.39 µg/mL
same,MIC,[5]; [8],0.39 µg/mL
"Cc1oc(=O)oc1COc1cccccc1=O [Compound 25, O-{(2-Oxo-5-methyl-1,3-dioxol-4-yl)methyl}tropolone]",MIC,[1]; [8],0.39 µg/mL
same,"Change of air-sac, left: + (chickens)",[2]; [13],0
same,"Change of air-sac, left: ++ (chickens)",[2]; [13],0
same,"Change of air-sac, left: +++ (chickens)",[2]; [13],0
same,"Change of air-sac, left: - (chickens)",[2]; [13],8
same,"Change of air-sac, right: + (chickens)",[2]; [13],1
same,"Change of air-sac, right: ++ (chickens)",[2]; [13],0
same,"Change of air-sac, right: +++ (chickens)",[2]; [13],0
same,"Change of air-sac, right: - (chickens)",[2]; [13],7
same,"Isolation, L (left air-sac)",[2]; [13],6
same,"Isolation, R (right air-sac)",[2]; [13],5
same,"Isolation, T (trachea)",[2]; [13],7
same,Mycoplasma Isolated Chickens,[2]; [13],7
same,Index of Isolation,[2]; [14],4.38
same,Index of Disease,[2]; [15],0.13
same,MIC,[3]; [8],0.39 µg/mL
same,MIC,[4]; [12],0.2 µg/mL
same,MIC,[5]; [8],0.39 µg/mL
"COc1ccccc(O)c1=O [Compound 26, 7-Methoxytropolone]",MIC,[1]; [8],6.25 µg/mL
same,"Change of air-sac, left: + (chickens)",[2]; [13],0
same,"Change of air-sac, left: ++ (chickens)",[2]; [13],0
same,"Change of air-sac, left: +++ (chickens)",[2]; [13],0
same,"Change of air-sac, left: - (chickens)",[2]; [13],8
same,"Change of air-sac, right: + (chickens)",[2]; [13],4
same,"Change of air-sac, right: ++ (chickens)",[2]; [13],2
same,"Change of air-sac, right: +++ (chickens)",[2]; [13],0
same,"Change of air-sac, right: - (chickens)",[2]; [13],2
same,"Isolation, L (left air-sac)",[2]; [13],8
same,"Isolation, R (right air-sac)",[2]; [13],5
same,"Isolation, T (trachea)",[2]; [13],8
same,Mycoplasma Isolated Chickens,[2]; [13],8
same,Index of Isolation,[2]; [14],4.88
same,Index of Disease,[2]; [15],1.00
same,MIC,[3]; [8],12.5 µg/mL
same,MIC,[4]; [12],3.13 µg/mL
same,MIC,[5]; [8],6.25 µg/mL
